Residues, ends and D or L forms follow the SMILES beside them.
Legend:
PTH receptor = molecular target: T1, PTH receptor (Mus musculus, UniProt P41593); assay: cAMP increase in MC3T3-EI osteoblast-like cells (biological activity in vitro); format: cell-based; settings: 1 nM analogue, room temperature for 30 minutes, total cAMP by radioimmunoassay
T1 construct: a mouse cranial bone-derived osteoblast-like cell strain, MC3T3-EI cells; endogenous in cells; host or cells: MC3T3-E1 mouse osteoblast-like cells
T1 sequence (P41593 27-591): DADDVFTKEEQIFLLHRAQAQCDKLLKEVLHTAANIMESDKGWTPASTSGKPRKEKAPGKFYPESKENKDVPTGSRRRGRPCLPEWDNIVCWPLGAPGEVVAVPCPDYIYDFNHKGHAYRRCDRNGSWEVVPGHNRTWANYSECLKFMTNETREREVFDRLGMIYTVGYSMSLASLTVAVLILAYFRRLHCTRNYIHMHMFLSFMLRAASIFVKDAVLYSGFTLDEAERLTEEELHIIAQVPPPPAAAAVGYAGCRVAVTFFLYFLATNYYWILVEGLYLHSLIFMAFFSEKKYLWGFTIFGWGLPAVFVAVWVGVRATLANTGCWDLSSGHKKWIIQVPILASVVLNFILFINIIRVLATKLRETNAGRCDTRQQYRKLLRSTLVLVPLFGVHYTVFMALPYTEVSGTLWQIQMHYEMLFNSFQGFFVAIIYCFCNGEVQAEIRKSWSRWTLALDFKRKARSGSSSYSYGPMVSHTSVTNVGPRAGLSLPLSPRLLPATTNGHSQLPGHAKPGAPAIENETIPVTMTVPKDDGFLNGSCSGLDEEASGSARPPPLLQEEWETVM
Protocol: The biological activity of the PTH(1-34) peptide analogues was evaluated by the method reported by Shigeno et al., The Journal of Biological Chemistry, 263, 18369-18377 (1988) with a modification. A culture solution (Hank's solution, containing 20 mM N-2-hydroxyethylpiperazine-N'-2-ethanesulfonic acid (HEPES), 0.1% bovine serum albumin and 0.5 mM isobutylmethyl-xanthine) containing a 0.01, 0.1, 1, 10 or 100 nM peptide derivative was added in an amount of 100 μl to a mouse cranial bone-derived osteoblast-like cell strain, MC3T3-EI cells, cultivated on a 96-well multiplate (Nunclon, Nunc), followed by reaction at room temperature for 30 minutes. After addition of 100 μl of 0.2N hydrochloric acid, the plate was immersed in boiling water for 2.5 minutes to extract cyclic adenosine monophosphate (cAMP) produced by a PTH receptor from the cells. The total cAMP in the culture solution and the cells was assayed using a commercial radioimmunoassay kit (cyclic AMP [^125 I] kit "Du Pont-Daiichi", Daiichi Kagaku Yakuhin). For the biological activity of the PTH(1-34) peptide derivatives, increases in cAMP caused by 1 nM analogues are shown in Table 3.

Sprangue Dawley rats = assay: Increase in femur bone weight in rats after subcutaneous dosing; format: in vivo, rat; settings: 4.9 nmol/kg a day subcutaneously for two weeks; four-week-old male rats; dried right femur weight compared with vehicle group
Protocol: To four-week-old male Sprangue Dawley rats, the compounds synthesized in Example 1 […], and increases in the bone weight in their femurs were compared with that of a group to which a vehicle (0.15M NaCl, 0.001N hydrochloric acid and 2% heat-inactivated rat serum) was given. After administration, their right femurs were taken out, and the tissues around them were removed. Then, the femurs were dried at 100° C. for 3 hours and weighed.

SMILES	cAMP increase (PTH receptor) [pmol/well]	bone increase (Sprangue Dawley rats) [mg]
CC[C@H](C)[C@H](NC(=O)[C@H](CCC(=O)O)NC(=O)[C@H](CO)NC(=O)[C@@H](NC(=O)[C@@H](N)CO)C(C)C)C(=O)N[C@@H](CCC(N)=O)C(=O)N[C@@H](CC(C)C)C(=O)N[C@@H](CCSC)C(=O)N[C@@H](Cc1c[nH]cn1)C(=O)N[C@@H](CC(=O)O)C(=O)N[C@@H](CC(C)C)C(=O)NCC(=O)N[C@@H](CCCCN)C(=O)N[C@@H](Cc1c[nH]cn1)C(=O)N[C@@H](CC(C)C)C(=O)N[C@@H](CC(N)=O)C(=O)N[C@@H](CO)C(=O)N[C@@H](CCSC)C(=O)N[C@@H](CCC(=O)O)C(=O)N[C@@H](CCCNC(=N)N)C(=O)N[C@H](C(=O)N[C@@H](CCC(=O)O)C(=O)N[C@@H](Cc1c[nH]c2ccccc12)C(=O)N[C@@H](CC(C)C)C(=O)N[C@@H](CCCNC(=N)N)C(=O)N[C@@H](CCCCN)C(=O)N[C@@H](CCCCN)C(=O)N[C@@H](CC(C)C)C(=O)N[C@@H](CCC(N)=O)C(=O)N[C@@H](CC(=O)O)C(=O)N[C@H](C(=O)N[C@@H](Cc1c[nH]cn1)C(=O)N[C@@H](CC(N)=O)C(=O)N[C@@H](Cc1ccccc1)C(=O)O)C(C)C)C(C)C [(3), [Asp^10] hPTH(1-34)]	0.60	26.1
CC[C@H](C)[C@H](NC(=O)[C@H](CCC(=O)O)NC(=O)[C@H](CO)NC(=O)[C@@H](NC(=O)[C@@H](N)CO)C(C)C)C(=O)N[C@@H](CCC(N)=O)C(=O)N[C@@H](CC(C)C)C(=O)N[C@@H](CCSC)C(=O)N[C@@H](Cc1c[nH]cn1)C(=O)N[C@@H](CCC(=O)O)C(=O)N[C@@H](CC(C)C)C(=O)NCC(=O)N[C@@H](CCCCN)C(=O)N[C@@H](Cc1c[nH]cn1)C(=O)N[C@@H](CC(C)C)C(=O)N[C@@H](CC(N)=O)C(=O)N[C@@H](CO)C(=O)N[C@@H](CCSC)C(=O)N[C@@H](CCC(=O)O)C(=O)N[C@@H](CCCNC(=N)N)C(=O)N[C@H](C(=O)N[C@@H](CCC(=O)O)C(=O)N[C@@H](Cc1c[nH]c2ccccc12)C(=O)N[C@@H](CC(C)C)C(=O)N[C@@H](CCCNC(=N)N)C(=O)N[C@@H](CCCCN)C(=O)N[C@@H](CCCCN)C(=O)N[C@@H](CC(C)C)C(=O)N[C@@H](CCC(N)=O)C(=O)N[C@@H](CC(=O)O)C(=O)N[C@H](C(=O)N[C@@H](Cc1c[nH]cn1)C(=O)N[C@@H](CC(N)=O)C(=O)N[C@@H](Cc1ccccc1)C(=O)O)C(C)C)C(C)C [(4), [Glu^10] hPTH(1-34)]	1.81	31.1
CC[C@H](C)[C@H](NC(=O)[C@H](CCC(=O)O)NC(=O)[C@H](CO)NC(=O)[C@@H](NC(=O)[C@@H](N)CO)C(C)C)C(=O)N[C@@H](CCC(N)=O)C(=O)N[C@@H](CC(C)C)C(=O)N[C@@H](CCSC)C(=O)N[C@@H](Cc1c[nH]cn1)C(=O)N[C@@H](CC(=O)O)C(=O)N[C@@H](Cc1ccccc1)C(=O)NCC(=O)N[C@@H](CCCCN)C(=O)N[C@@H](Cc1c[nH]cn1)C(=O)N[C@@H](CC(C)C)C(=O)N[C@@H](CC(N)=O)C(=O)N[C@@H](CO)C(=O)N[C@@H](CCSC)C(=O)N[C@@H](CCC(=O)O)C(=O)N[C@@H](CCCNC(=N)N)C(=O)N[C@H](C(=O)N[C@@H](CCC(=O)O)C(=O)N[C@@H](Cc1c[nH]c2ccccc12)C(=O)N[C@@H](CC(C)C)C(=O)N[C@@H](CCCNC(=N)N)C(=O)N[C@@H](CCCCN)C(=O)N[C@@H](CCCCN)C(=O)N[C@@H](CC(C)C)C(=O)N[C@@H](CCC(N)=O)C(=O)N[C@@H](CC(=O)O)C(=O)N[C@H](C(=O)N[C@@H](Cc1c[nH]cn1)C(=O)N[C@@H](CC(N)=O)C(=O)N[C@@H](Cc1ccccc1)C(=O)O)C(C)C)C(C)C [(5), [Asp^10, Phe^11] hPTH(1-34)] (H-SVSEIQLMHDFGKHLNSMERVEWLRKKLQDVHNF-OH)	2.58	20.4
